Experimental data taken from US20220249599A1, “TREATMENT OF IMPLANTS WITH ENGINEERED ANTIMICROBIAL AMPHIPHILIC PEPTIDES” (priority 2018, published 2022).
Ends that are not written are not given here.

Experiments:
S. aureus = assay: Periprosthetic joint infection mouse model, implant biofilm CFU burden; type: in vivo; details: intraperitoneal delivery, versus untreated control mice
Method: Periprosthetic joint infection was modeled in a mouse by placing an intra-articular K-wire through the medullary canal of the proximal femur followed by intra-articular inoculation with S. aureus. Animals were treated systemically with an intraperitoneal delivery of cefazolin, rifampin, or the exemplary peptide of SEQ ID NO:1. Intraperitoneal delivery was chosen due to technical difficulties associated with intravenous delivery. Implant sonication and proximal femur homogenate were used to quantify viable bacteria.

[1] = test system: P. aeruginosa strains (PAO1 and 2 clinical isolates); type: cell-based; details: three P. aeruginosa strains, 0.5×MIC exposure
Source text: Each antibiotic was compared for their propensity to select for bacterial resistance phenotypes in vitro.

[2] = test system: Acinetobacter baumannii ATCC 19606 (non-MDR); type: cell-based; details: ATCC 19606
Method: (§1) Each peptide was formulated in PBS buffer prior to testing. Peptides of SEQ ID NO:5 and SEQ ID NO:8 were brought up in 100% DMSO with 0.002% polysorbate-80 at 1.28 mg/mL (40× the highest final test concentration of 32 mcg/mL). Final test concentration of DMSO was 2.5% in the assay at the first dilution for those two compounds.
(§2) Mueller Hinton II broth (MHB II; BD; Lot Nos. 6258541 and 7143896) was used for MIC testing of aerobic organisms. 0.002% polysorbate 80 (P80) was added to the test medium.
(§3) MIC values were determined using a broth microdilution procedure described by CLSI (1, 3). Automated liquid handlers (Multidrop 384, Labsystems, Helsinki, Finland; Biomek 2000 and Biomek FX, Beckman Coulter, Fullerton Calif.) were used to conduct serial dilutions and liquid transfers.
(§4) To prepare the drug mother plates, which would provide the serial peptide dilutions for the replicate daughter plates, the wells of columns 2-12 of standard 96-well microdilution plates (Costar 3795) were filled with 150 µl of the designated diluent for each row of peptide.
(§5) The test articles and comparator compounds ([…] at 40× the highest concentration to be tested) were dispensed into the appropriate wells in column 1. The Biomek 2000 was then used to make 2-fold serial dilutions in the mother plates from column 1 through column 11. The wells of Column 12 contained no drug and served as the organism growth control wells for the assay.
(§6) The daughter plates were loaded with 185 μL per well of MHB II using the Multidrop 384. The daughter plates were completed on the Biomek FX instrument which transferred 5 uL of peptide solution from each well of a mother plate to the corresponding well of each daughter plate in a single step. A standardized inoculum of each test organism was prepared per CLSI methods. The inoculum for each organism was dispensed into sterile reservoirs divided by length (Beckman Coulter), and the Biomek 2000 was used to inoculate the plates. Daughter plates were placed on the Biomek 2000 work surface in reverse orientation so that inoculation took place from low to high drug concentration.
(§7) Plates were stacked 3-4 high, covered with a lid on the top plate, placed in plastic bags, and incubated at 35° C. for 16 to 20 hrs. Following incubation, the microplates were removed from the incubator and viewed from the bottom using a plate viewer. […] The MIC was read and recorded as the lowest concentration of peptide that inhibited visible growth of the organism.

[3] = test system: Enterococcus faecalis ATCC 29212 (VSE; QC); type: cell-based; details: ATCC 29212
Method: as §1, §2, §3, §4, §5, §6, §7

[4] = test system: Enterococcus faecalis ATCC 700802 (V583 VRE); type: cell-based; details: ATCC 700802
Method: as §1, §2, §3, §4, §5, §6, §7

[5] = test system: Enterococcus faecium ATCC 51559 (VRE); type: cell-based; details: ATCC 51559
Method: as §1, §2, §3, §4, §5, §6, §7

[6] = test system: Escherichia coli ATCC 25922 (QC); type: cell-based; details: ATCC 25922
Method: as §1, §2, §3, §4, §5, §6, §7

[7] = test system: Escherichia coli ATCC 35218 (ESBL); type: cell-based; details: ATCC 35218
Method: as §1, §2, §3, §4, §5, §6, §7

[8] = test system: Escherichia coli ATCC BAA-2471 (NDM-1); type: cell-based; details: ATCC BAA-2471
Method: as §1, §2, §3, §4, §5, §6, §7

[9] = test system: Klebsiella pneumoniae ATCC BAA-1705 (KPC); type: cell-based; details: ATCC BAA-1705
Method: as §1, §2, §3, §4, §5, §6, §7

[10] = test system: Pseudomonas aeruginosa ATCC 27853 (non-MDR; QC); type: cell-based; details: ATCC 27853
Method: as §1, §2, §3, §4, §5, §6, §7

[11] = test system: Pseudomonas aeruginosa ATCC BAA-2109 (MDR); type: cell-based; details: ATCC BAA-2109
Method: as §1, §2, §3, §4, §5, §6, §7

[12] = test system: Staphylococcus aureus ATCC 29213 (MSSA; QC); type: cell-based; details: ATCC 29213
Method: as §1, §2, §3, §4, §5, §6, §7

[13] = test system: Staphylococcus aureus ATCC 43300 (MRSA); type: cell-based; details: ATCC 43300
Method: as §1, §2, §3, §4, §5, §6, §7

[14] = test system: Staphylococcus aureus NRS382 (USA100; HA-MRSA); type: cell-based; details: USA100
Method: as §1, §2, §3, §4, §5, §6, §7

[15] = test system: Streptococcus pneumoniae ATCC 49619 (QC); type: cell-based; details: ATCC 49619
Method: as §1, §2, §3, §4, §5, §6, §7

[16] = test system: Streptococcus pyogenes ATCC 49399; type: cell-based; details: ATCC 49399
Method: as §1, §2, §3, §4, §5, §6, §7

[17] = test system: Acinetobacter baumannii ATCC BAA-1797 (MDR); assay: microbe, parasite or virus in culture; type: cell-based; details: ATCC BAA-1797
Method: as §1, §2, §3, §4, §5, §6, §7

| Compound | MIC [2] [µg/mL] | MIC [3] [µg/mL] | MIC [4] [µg/mL] | MIC [5] [µg/mL] | MIC [6] [µg/mL] | MIC [7] [µg/mL] | MIC [8] [µg/mL] | MIC [9] [µg/mL] | MIC [10] [µg/mL] | MIC [11] [µg/mL] | MIC [12] [µg/mL] | MIC [13] [µg/mL] | MIC [14] [µg/mL] | MIC [15] [µg/mL] | MIC [16] [µg/mL] | MIC [17] [µg/mL] | Reduction of implant biofilm CFU burden (sonicate culture) (S. aureus) | Time to development of resistance (fold MIC>10) [1] [days] |
| --- | --- | --- | --- | --- | --- | --- | --- | --- | --- | --- | --- | --- | --- | --- | --- | --- | --- | --- |
| CO[C@H]1/C=C/O[C@@]2(C)Oc3c(C)c(O)c4c(O)c(c(/C=N/N5CCN(C)CC5)c(O)c4c3C2=O)NC(=O)/C(C)=C\C=C\[C@H](C)[C@H](O)[C@@H](C)[C@@H](O)[C@@H](C)[C@H](OC(C)=O)[C@@H]1C [Rifampin] | – | – | – | – | – | – | – | – | – | – | – | – | – | – | – | – | comparable reduction in biofilms sonicate as compared to SEQ ID NO:1 | ≤ 3 |
| IRRRRRRIRRRRRR [SEQ ID NO: 2] | 32 | >32 | >32 | 16 | 16 | 16 | 32 | >32 | >32 | 8 | 16 | 16 | 8 | >32 | 32 | >32 | – | – |
| LL-37 [LL37] | – | – | – | – | – | – | – | – | – | – | – | – | – | – | – | – | – | 9 |
| VWRWVRRVWRWVRRVWRWVRR [SEQ ID NO: 5] | 16 | 16 | 16 | 8 | 16 | 16 | 32 | >32 | >32 | 16 | 16 | 8 | 8 | 32 | 32 | 32 | – | – |

Now from value to compound, other results behind:

| MIC [2] [µg/mL] | MIC [3] [µg/mL] | MIC [4] [µg/mL] | MIC [5] [µg/mL] | MIC [6] [µg/mL] | MIC [7] [µg/mL] | MIC [8] [µg/mL] | MIC [9] [µg/mL] | MIC [10] [µg/mL] | MIC [11] [µg/mL] | MIC [12] [µg/mL] | MIC [13] [µg/mL] | MIC [14] [µg/mL] | MIC [15] [µg/mL] | MIC [16] [µg/mL] | MIC [17] [µg/mL] | Compound | Reduction of implant biofilm CFU burden (sonicate culture) (S. aureus) | Time to development of resistance (fold MIC>10) [1] [days] |
| --- | --- | --- | --- | --- | --- | --- | --- | --- | --- | --- | --- | --- | --- | --- | --- | --- | --- | --- |
| >32 | >32 | >32 | 16 | >32 | 32 | 16 | >32 | >32 | >32 | >32 | >32 | >32 | >32 | 16 | >32 | VVRVVRRVVRVVRR [SEQ ID NO: 7] | – | – |
| 32 | 4 | 4 | 0.25 | >32 | >32 | >32 | >32 | >32 | 16 | >32 | 32 | >32 | >32 | 16 | >32 | VVRVVRVVVRVVRVVVRVVRV [SEQ ID NO: 8] | – | – |
| 0.5 | 2 | 4 | 0.5 | 2 | 1 | 1 | 4 | 16 | 8 | 0.5 | 0.5 | 0.5 | 8 | 4 | 0.5 | VWRWVRRVWRWVRR [SEQ ID NO: 6] | – | – |
